Patent US11136601B2, “Conversion of S-lignin compounds to useful intermediates” (Alliance for Sustainable Energy, LLC, priority 2018, dated 2021)

What was measured:
[1] = biological target: T1, VanAB (vanillate demethylase; purified VanA and VanB subunits) (Pseudomonas putida, UniProt Q88GI6); experiment: VanAB in vitro time course of substrate consumption and product formation (HPLC); type: biochemical, P. putida KT2440; settings: 30 minutes time course, 100 μM substrate, VanAB 1.3 μM, room temperature
T1 sequence (Q88GI5 entry or part of it, one chain of several): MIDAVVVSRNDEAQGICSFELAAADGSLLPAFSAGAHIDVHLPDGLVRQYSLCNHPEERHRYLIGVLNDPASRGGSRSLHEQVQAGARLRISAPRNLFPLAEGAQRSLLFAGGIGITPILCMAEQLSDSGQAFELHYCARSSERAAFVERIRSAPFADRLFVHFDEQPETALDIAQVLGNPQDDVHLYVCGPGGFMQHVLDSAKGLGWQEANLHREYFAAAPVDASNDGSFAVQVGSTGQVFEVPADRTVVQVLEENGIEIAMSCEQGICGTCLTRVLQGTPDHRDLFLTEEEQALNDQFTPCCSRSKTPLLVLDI
Method: FIG. 13 illustrates time course of VA consumption/PCA production and SA consumption/3-MGA production, according to some embodiments of the present disclosure. VanAB (1.3 μM) was incubated with 100 μM VA or SA at room temperature, in the presence of 0.5 μM NADPH. Results are an average of at least two experiments.
FIG. 14 illustrates time-course of 3MGA consumption and GA formation, according to some embodiments of the present disclosure.
(§1) Activity assay were followed by cofactor NADPH consumption monitored spectrophotometrically at 340 nm.
Metabolites analysis: Samples from the in vivo experiments were centrifuged to remove the cells and the supernatants were filtered through a 0.2 μm syringe filter and metabolite concentrations were analyzed on an Agilent 1100 series HPLC equipped with Phenominex Rezex™ RFQ-Fast Acid H^+ (8%), LC Column, a diode array detector, and refractive index detector and a 0.01 N H2SO4 mobile phase. The products were identified by comparing the retention times and spectral profiles with pure compounds. Shake flask experiments were performed in triplicate and the standard deviation of the triplicate measurement were calculated using the following equation: in which x is each value in a sample, x is the average of the values, and n is the number of values. The same method was employed to analyze the metabolites from the in vitro reaction. PDC compounds was analyzed and quantified by ^1H NMR spectrum. […], of fermentation broth was diluted in 400 μL of deuterium oxide (Isotope Laboratories Inc.) and 50 μL of deuterium oxide containing known mass of the internal standard succinic acid.

[2] = biological target: T1, VanAB (vanillate demethylase; purified VanA and VanB subunits); experiment: VanAB in vitro enzymatic assay (kinetics and specific activity, NADPH consumption at 340 nm); settings: for VanAB specific activity: 100 μM substrate, pH 7.5; for VanAB specific activity / Kcat: 100 μM NADPH; for Kcat: Michaelis-Menten kinetics, 20 mM Tris-HCl pH 7.5
Method: VanAB activity was also tested towards vanillate analogous substrates such as vanillin, ferulic acid, sinapinic acid, methyl vanillate, ethyl vanillate, and guaiacol.
as §1

[3] = system: P. putida KT2440 wild-type; experiment: Toxicity assessment of S-lignin derived monomers, growth (OD600) of wild-type strain; type: cell-based, Pseudomonas putida; settings: wild-type KT2440, M9 minimal media with 20 mM glucose
Excerpt: (§2) FIG. 9 illustrates: Panel A. Wild-type P. putida KT24401 and Panel B. P. putida CJ486 (second copy vanAB overexpressed in genome), both according to some embodiments of the present disclosure. […] Cultures were sampled periodically to evaluate growth by OD600 and metabolite concentrations in the media using HPLC. Each point represents the average of two measurements with error bars representing their range.
(§3) FIG. 10 illustrates: Panel A. Wild-type P. putida KT2440; and Panel B. P. putida CJ486 (second copy vanAB overexpressed in genome), both according to some embodiments of the present disclosure. Cells were grown in M9 minimal medium containing 20 mM glucose and various concentrations of SAL. Cultures were sampled periodically to evaluate growth by OD600 and metabolite concentrations in the media using HPLC. Each point represents the average of two measurements with error bars representing their range.
as §2, with “11” for “9”, “KT2440;” for “KT24401”
(§4) To evaluate this, the engineered strain CJ486 and wild-type strain were grown in M9 minimal media containing 20 mM glucose and various concentrations of the S-lignin monomers.
(§5) Strains were cultivated overnight in LB medium, washed once with 1×M9 medium (6.78 g/L disodium phosphate, 3 g/L monopotassium phosphate, 0.5 g/L NaCl, 1 g/L NH4Cl, 2 mM MgSO4, 100 μM CaCl2), and 18 μM FeSO4, pH 7.0) and used to inoculate 125 mL baffled flasks containing M9 minimal media supplemented with various concentrations of S-lignin monomers (SA, 3-MGA or syringaldehyde (SAL), stock solution dissolved in 2% DMSO) and 20 mM glucose in some cases, to an optical density of 0.1 and incubated shaking at 225 rpm, 30° C. Cultures were sampled periodically by removing 1 mL that was used to measure the OD600 using a spectrophotometer (DU640 Beckman Coulter). In the case of 3-MGA provided to wild-type strain KT2440, SN166 and SN175, the reaction was downscaled to 50 mL baffled flasks containing 10 mL minimal media and the experiment was performed in duplicate.

[4] = system: P. putida CJ486 (second copy vanAB overexpressed in genome); experiment: Toxicity assessment of S-lignin derived monomers, growth (OD600) of engineered strain CJ486; type: cell-based, Pseudomonas putida; settings: strain CJ486, M9 minimal media with 20 mM glucose
Excerpt: as §2, §3
as §2, with “11” for “9”, “KT2440;” for “KT24401”
as §4, §5

[5] = substrate: COc1cc(C(=O)O)ccc1O; experiment: purified protein, by the assay type; settings: other: apparent constant (substrate inhibition kinetics); NADPH measured in the presence of VA; pH 7.5; 30.0 °C
[6] = substrate: COc1cc(C(=O)O)cc(OC)c1O; experiment: purified protein, by the assay type; settings: other: Michaelis-Menten kinetics, 100 μM NADPH, 20 mM Tris-HCl pH 7.5, 30.0 °C
[7] = apparent constant (substrate inhibition kinetics), NADPH measured in the presence of VA

## COc1cc(C(=O)O)ccc1O [Vanillate, vanillate]
[1]
  product formed (protocatechuate from VA; 3-MGA from SA): 47 µM
  substrate converted (metabolized): 58 µM
[2]
  VanAB specific activity: 403 ± 59 U/mg

## COc1ccccc1O [Guieicol, guaiacol]
[2]
  VanAB specific activity: 188 ± 16 U/mg
[2]; listed as guaiacol
  VanAB specific activity: 188±16 U/mg

## COc1cc(C(=O)O)cc(O)c1O [3-MGA, 3-O-methyl gallate]
[2]
  VanAB specific activity: 264 ± 86 U/mg
  Kcat: 0.435 ± 0.0467 s⁻¹
[2]; listed as 3MGA
  Kcat: 0.435 ± 0.0467 s⁻¹

## NC(=O)C1=CN([C@@H]2O[C@H](COP(=O)(O)OP(=O)(O)OC[C@H]3O[C@@H](n4cnc5c(N)ncnc54)[C@H](OP(=O)(O)O)[C@@H]3O)[C@@H](O)[C@H]2O)C=CC1 [NADPH, reference compound]
[2]; [7]
  KMapp: 26.7 ± 3.7 µM
  Kcat^app: 0.045 ± 0.0183 s⁻¹
[2]; read-out: Ki (substrate inhibition), substrate inhibition kinetics, NADPH-dependent inhibition measured in the presence of VA
  Ki: 25.3 ± 7.4 µM

## O=C(O)c1cc(O)c(O)c(O)c1 [Gallate, gallic acid]
[3]
  concentration at which growth was completely inhibited (no growth): 50000 µM
  highest concentration tolerated / that allowed growth: 20 mM
[4]
  concentration at which growth was completely inhibited (no growth): 50000 µM
  highest concentration tolerated / that allowed growth: 20 mM

## COc1cc(C=O)ccc1O [Vanillin, vanillin]
[2]
  VanAB specific activity: 49 ± 18 U/mg
[2]; listed as vanillin
  VanAB specific activity: 49±18 U/mg
[2]; VanAB specific activity relative to VA
  fold lower specific activity in comparison to VA: 10 fold

## CCOC(=O)c1ccc(O)c(OC)c1 [Ethylvanillate, ethyl vanillate]
[2]
  VanAB specific activity: 100 ± 27 U/mg
[2]; listed as ethyl vanillate
  VanAB specific activity: 100±27 U/mg

## COc1cc(C=O)cc(OC)c1O [SAL, syringaldehyde]
[3]
  concentration at which growth was completely inhibited (no growth): 50000 µM
  highest concentration tolerated / that allowed growth: 20 mM
[4]
  concentration at which growth was completely inhibited (no growth): 50000 µM
  highest concentration tolerated / that allowed growth: 20 mM

## COc1cc(C(=O)O)cc(OC)c1O [Syringate, syringic acid]
[1]
  product formed (protocatechuate from VA; 3-MGA from SA): 9 µM
  residual substrate concentration: 70 µM
[3]
  highest concentration tolerated / that allowed growth: at least 120 mM
[4]
  highest concentration tolerated / that allowed growth: at least 120 mM
[2]
  VanAB specific activity: 704 ± 103 U/mg
[2]; listed as SA
  Kcat: 1.13 ± 0.0683 s⁻¹

B1: VanAB (vanillate demethylase; purified VanA and VanB subunits) (Pseudomonas putida KT2440) (protein)
chain: MYPKNTWYVACTPDEIATKPLGRQICGEKIVFYRARENQVAAVEDFCPHRGAPLSLGYVEDGNLVCGYHGLVMGCDGKTVSMPGQRVRGFPCNKTFAAVERYGFIWVWPGDQAQADPALIPHLEWAVSDEWAYGGGLFHIGCDYRLMIDNLMDLTHETYVHASSIGQKEIDEAPPVTTVTGDEVVTARHMENIMAPPFWRMALRGNGLADDVPVDRWQICRFTPPSHVLIEVGVAHAGKGGYHAEAQHKASSIVVDFITPESDTSIWYFWGMARNFAAHDQTLTDNIREGQGKIFSEDLEMLERQQQNLLAHPERNLLKLNIDAGGVQSRKVLERIIAQERAPQPQLIATSANPA
[5]
  Km: 4.3 ± 3.1 µM
  kcat: 0.28 ± 0.0317 s⁻¹
[6]
  Km: 113.9 ± 21.5 µM
  kcat: 1.13 ± 0.0683 s⁻¹
